According to US7166618B2, “Nitrosated and nitrosylated cyclooxygenase-2 inhibitors, compositions and methods of use” (NitroMed, Inc., priority 1999, dated 2007):
pIC50: −log10 of the molar value. Entries after “also recorded” stand apart in the source; their conditions may differ.

Assays:
[1] = test system: carrageenan-induced rat paw edema; experiment: Carrageenan-induced rat paw edema test; type: in vivo; conditions: rats dosed intragastrically, paw volume 3 hours after carrageenan
Method: The carrageenan-induced rat paw edema test was used to measure antiinflammatory activity. The paw edema test was performed according to the method of Winter et al, Proc. Soc. Exp. Biol. Med. 111: 544–547, 1962. Male Sprague-Dawley rats (200–250 g) were fasted for 24 hours with water ad libitum. The rats were dosed intragastrically with test compounds in a volume of 5 mL/kg. One hour after dosing the paw volume was measured. Then each rat received a subplantar injection of 50 μl of 1% suspension of carrageenan. Three hours later, the paw volume was measured and compared with the initial volume measured […]. The increase in paw volume is presented as the mean±SEM for 5 rats per group. Data were analyzed by performing an ANOVA test followed by a Student-Keuls post hoc test.

ovine COX-1 = target: T1, ovine COX-1 (Ovis aries, UniProt P05979); experiment: biochemical; conditions: for pIC50: ovine COX-1
T1 sequence (P05979 25-600): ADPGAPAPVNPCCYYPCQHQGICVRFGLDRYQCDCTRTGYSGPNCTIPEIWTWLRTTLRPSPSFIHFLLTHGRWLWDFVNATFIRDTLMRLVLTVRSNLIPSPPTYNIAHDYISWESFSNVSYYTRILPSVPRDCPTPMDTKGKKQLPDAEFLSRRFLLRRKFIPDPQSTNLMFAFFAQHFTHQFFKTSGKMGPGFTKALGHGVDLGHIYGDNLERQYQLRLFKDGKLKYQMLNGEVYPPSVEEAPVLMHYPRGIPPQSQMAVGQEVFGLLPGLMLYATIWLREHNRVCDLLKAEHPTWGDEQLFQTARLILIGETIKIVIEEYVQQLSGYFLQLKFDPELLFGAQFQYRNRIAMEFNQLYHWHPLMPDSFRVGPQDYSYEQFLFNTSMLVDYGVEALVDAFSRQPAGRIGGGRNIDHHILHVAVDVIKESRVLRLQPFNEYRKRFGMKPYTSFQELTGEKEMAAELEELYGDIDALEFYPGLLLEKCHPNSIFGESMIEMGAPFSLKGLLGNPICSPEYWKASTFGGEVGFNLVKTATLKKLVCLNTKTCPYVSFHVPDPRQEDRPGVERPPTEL
Method: (§1) The ovine COX-1 and COX-2 activities and the measurement of the prostaglandin products synthesized were performed using the COX Inhibitor Screening Assay (Cayman Chemical, Ann Arbor, Mich., which also contained the Prostaglandin Screening EIA Kit, used for prostaglandin quantification). The test compounds were dissolved at 50 times the highest final reaction concentration in DMSO or any other suitable solvent as stock solutions. These stock solutions were then diluted in the same solvent. Eight glass test tubes (13×100 mm) were placed in a 37° C. water bath. To each test tube was added 950 μL of reaction buffer (0.1 M Tris-HCl, pH 8.0, containing 5 mM EDTA, and 2 mM phenol), 10 μL of 100 µM heme solution, and 10 μL (5 units) of either ovine COX-1 or COX-2 and the resulting mixture was incubated with the enzyme for 2 minutes. Twenty μL of the solvent was added to one tube (100% initial activity or solvent control) and 20 μL of each dilution of the test compound was added to one tube each. Each tube was vortexed immediately after the addition. The enzyme was incubated with the inhibitor for 3.5 minutes at 37° C. The enzymatic reaction was then initiated by the addition of 10 μL of freshly prepared 10 mM arachidonic acid (neutralized with KOH), vortexed and then incubated for 2 minutes at 37° C. The reaction was terminated by the addition of 50 μL of 1 M HCl, vortexed and placed at room temperature. One hundred microliters of a saturated stannous chloride solution (50 mg/mL of 0.1 M HCl) was added and the reaction mixture was allowed to stand at room temperature for at least 5 minutes.
(§2) The prostaglandins (PG) produced in the reactions were assayed, after a 2,000-fold dilution, using the Prostaglandin Screening EIA Kit (Cayman Chemical, Ann Arbor, Mich.). The assay-contains an antibody with broad specificity for all the prostaglandin families (PGF, PGE, PGD, and thromboxane B-type) synthesized in the COX-1/COX 2 reactions. The synthesized prostaglandin competes with a PG-tagged acetylcholine esterase tracer for binding to the PG antibody. Binding of synthesized PG lowers the calorimetric development of the Ellman's Reagent (computed as % B/B0). The actual amount of synthesized PG was interpolated from a standard curve using known amounts of supplied prostaglandin E2 (PGE2) (PGE2 concentration vs. % B/B0). The data generated were the mean±standard deviation of triplicate wells in the EIA for a single reaction at a given inhibitor concentration.

[2] = test system: rat aortic smooth muscle rings; experiment: Relaxation of phenylephrine-contracted rat aortic smooth muscle rings; conditions: rings precontracted with 10 μM phenylephrine; for relaxation of aortic smooth muscle ring: 100 nM to 100 μM test compound; for relaxation compared with reference NO donor (ISDN or GSNO): comparator as in the value
Method: Male Sprague-Dawley rats (Charles River Laboratories (Wilmington, Mass.) were euthanized by intraperiton injection of a high dose of sodium pentobarbitone (80–100 mg/kg). The thoracic aorta was rapidly excised and immediately placed in a Petri dish containing warm (37° C.) oxygenated (95% O2 and 5% CO2) Kreb's buffer (composition per millimolar: NaCl (119); KCl (4.69); CaCl2.H2O (2.52); MgSO4.7H2O (0.57); NaHCO3 (25); NaH2PO4.H2O (1.01) and glucose (11.1). Under a stereoscopic dissecting microscope, the aorta was cleaned, freed from adhering fat and connective tissues. The tissue was cut into ring segments, each approximately 2–3 mm in length.
For experiments to measure relaxation of the tissue under various conditions, a stainless steel tissue holder and an U-shaped stainless steel wire were inserted into the lumen of the aortic ring. The tissue holder anchored the ring at the bottom of the organ bath whereas the end of the U-shaped steel wire was tied with fine silk thread so that it connected to the FT-202 transducer. The tissue holder and the steel wire along with the aortic ring were then suspended in a 5-mL double-jacketed temperature-controlled glass organ bath (Radnoti Glass Technology, Inc., Monrovia, Calif.) filled with fresh Kreb's buffer. A mixture of 95% O2 and 5% CO2 was bubbled through a porous sintered disc at the bottom of the bath. The rings were given an initial resting tension of 1.5 g and the preparation was allowed to equilibrate at the initial tension for about 90 minutes. During this equilibration period, the bath fluid was changed every 15 minutes and replaced with fresh prewarmed (37° C.) Kreb's buffer. The isometric tension of the aortic muscle at rest and its response to different stimuli were recorded on a Power Macintosh 6100 computer via a MacLab 8/S computer interface (CB Sciences, Inc, Milford, Mass.) after an initial amplification through a low-noise ETH-400 bioamplifier (CB Sciences, Inc, Milford, Mass.). Contractile responsiveness of the tissue strips was established with 10 μM phenylephrine and the strips were incubated with the drug for 20 minutes to establish a steady level of contraction. To test the relaxation effects, test compounds were added to the phenylephrine-precontracted strips in the tissue bath at cumulative concentrations of 0.1 μM to 0.1 mM. Concentration of test compounds was increased only after relaxation at the previous concentration had reached a plateau level.

ovine COX-2 = target: T2, ovine COX-2 (Ovis aries, UniProt P79208); experiment: biochemical; type: biochemical; conditions: for pIC50: ovine COX-2, read-out: COX-2 IC50
T2 sequence (P79208 17-603): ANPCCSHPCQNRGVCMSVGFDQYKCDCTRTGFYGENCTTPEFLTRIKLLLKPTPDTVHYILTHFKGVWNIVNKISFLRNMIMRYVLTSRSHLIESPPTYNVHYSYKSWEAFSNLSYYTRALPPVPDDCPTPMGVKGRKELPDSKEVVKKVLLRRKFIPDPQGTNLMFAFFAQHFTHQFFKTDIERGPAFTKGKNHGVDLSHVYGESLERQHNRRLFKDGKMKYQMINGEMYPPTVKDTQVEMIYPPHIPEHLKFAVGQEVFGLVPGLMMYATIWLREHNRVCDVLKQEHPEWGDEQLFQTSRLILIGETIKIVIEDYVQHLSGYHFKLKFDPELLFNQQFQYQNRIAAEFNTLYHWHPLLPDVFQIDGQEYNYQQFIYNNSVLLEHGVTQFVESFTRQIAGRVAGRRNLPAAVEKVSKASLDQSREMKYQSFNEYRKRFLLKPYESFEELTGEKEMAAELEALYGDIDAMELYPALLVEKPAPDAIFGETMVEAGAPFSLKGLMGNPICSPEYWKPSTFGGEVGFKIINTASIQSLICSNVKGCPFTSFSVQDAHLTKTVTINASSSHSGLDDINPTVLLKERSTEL
Method: as §1, §2

| SMILES | paw volume (antiinflammatory activity) [1] | pIC50 (ovine COX-1) | relaxation of aortic smooth muscle ring [2] | relaxation compared with reference NO donor (ISDN or GSNO) [2] | pIC50 (ovine COX-2) | inhibition at 100 µM (ovine COX-1; Ovine COX-1 (footnote a), at 100 μM) | relaxation compared with reference NO donor (ISDN or GSNO) ([2]; Citrate Salt) | COX-2 inhibition potency compared with the parent compound (ovine COX-2; ovine enzymes, from Table 1) |
| --- | --- | --- | --- | --- | --- | --- | --- | --- |
| Cc1ccc(-c2cc(C(F)(F)F)nn2-c2ccc(S(N)(=O)=O)cc2)cc1 [Celecoxib, 4-(5-(4-methylphenyl)-3-(trifluoromethyl)-1H-pyrazol-1-yl)benzenesulfonamide] | reduced the paw volume | – | – | – | – | – | – | – |
| NS(=O)(=O)c1ccc(-n2nc(CO[N+](=O)[O-])cc2-c2ccc(Cl)cc2)cc1 [Example 1b, 4-(5-(4-Chlorophenyl)-3-((nitrooxy)methyl)-3-hydropyrazolyl) benzenesulfonamide] | – | 3.72 | induced the relaxation of the aortic ring | more potent than that obtained by the nitrate compound, isosorbide dinitrate | 5.00 | – | – | – |
| NS(=O)(=O)c1ccc(-c2c(-c3ccccc3)noc2CO)cc1 [Example 2a, 4-(5-(Hydroxymethyl)-3-phenylisoxazol-4-yl)benzenesulfonamide, reference compound] | reduced the paw volume | < 3.52 | did not relax the tissue; also recorded: did not relax the aortic ring | – | – | 0% | – | – |
| Cc1onc(-c2ccccc2)c1-c1ccc(S(=O)(=O)NC(=O)CCC(=O)OCCC2(SN=O)CCN(C)CC2)cc1.O=C(O)CC(O)(CC(=O)O)C(=O)O [Example 3g, 2-(1-Methyl-4-(nitrosothio)-4-piperidyl)ethyl 3-(N-((4-(5-methyl-3-phenylisoxazol-4-yl)phenyl)sulfonyl)carbamoyl)propanoate Citrate Salt] | – | < 3.52 | induced the relaxation of the aortic ring | – | 4.15 | – | comparable to that obtained with GSNO | not as potent as the parent non-nitrosylated compound |
| CS(=O)(=O)c1ccc(-c2nc3cc(CO)ccn3c2-c2ccc(F)cc2)cc1 [Example 5a, 1-(3-(4-Fluorophenyl)-7-(hydroxymethyl)(3a-hydroimidazolo(1,2-a)pyridin-2-yl))-4-(methylsulfonyl)benzene, reference compound] | – | < 3.52 | – | – | 4.92 | – | – | – |
